Laboratory results as given in patent publication US20070117743A1, “New antitumoral compounds” (priority 2003, published 2007).
Read-outs that look alike come from different tables or passages of the source. Where a SMILES comes first, the peptide text is derived from it. Bridges are numbered along the chain shown (N, C = ends). [ ]: non-standard residue; d: D form. The star is where a group is joined. d(aIle) = CC[C@H](C)[C@@H](N)C(=O)O; d(aThr) = C[C@@H](O)[C@@H](N)C(=O)O; Hexanoyl(5-Me) = CC(C)CCCC(=O)*; Orn = NCCC[C@H](N)C(=O)O; Dhb = C/C=C(\N)C(=O)O

What was measured:
Type in all cases: cell-based, human
[1] = test system: A-549; experiment: SRB colorimetric assay of cell growth and viability, A-549; settings: 48 hours exposure; for GI50: read-out: GI50 A-549; for CC50: read-out: LC50 A-549
[2] = test system: SK-MEL-28; experiment: SRB colorimetric assay of cell growth and viability, SK-MEL-28; settings: 48 hours exposure; for CC50: read-out: LC50 MEL-28
[3] = test system: HT-29; experiment: SRB colorimetric assay of cell growth and viability, HT-29; settings: 48 hours exposure; for GI50: read-out: GI50 HT-29; for CC50: read-out: LC50 HT-29
[4] = test system: LoVo-Dox; experiment: SRB colorimetric assay of cell growth and viability, LoVo-Dox; settings: LOVO-DOX, 48 hours exposure
How it was run: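 Cells in RPMI 1640 with 10% FBS were seeded at 5×10^3 per well and left 18 hours drug-free before compounds (10 to 10^−8 μg/mL in DMSO:EtOH:PBS 0.5:0.5:99) were added for 48 hours. TCA-fixed cells were stained with SRB and read at 490 nm; triplicate wells gave GI, TGI and LC.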

[5] = test system: DU-145; experiment: SRB colorimetric assay of cell growth and viability, DU-145; settings: 48 hours exposure
[6] = test system: LNCaP; experiment: SRB colorimetric assay of cell growth and viability, LNCaP; settings: 48 hours exposure; for CC50: read-out: LC50 LN-caP
[7] = test system: SK-BR-3; experiment: SRB colorimetric assay of cell growth and viability, SK-BR-3; settings: 48 hours exposure
[8] = test system: IGROV-1; experiment: SRB colorimetric assay of cell growth and viability, IGROV-1; settings: 48 hours exposure
[9] = test system: IGROV-ET; experiment: SRB colorimetric assay of cell growth and viability, IGROV-ET; settings: 48 hours exposure; for CC50: read-out: LC50 IGROV-ET
[10] = test system: HeLa; experiment: SRB colorimetric assay of cell growth and viability, HeLa; settings: 48 hours exposure; for CC50: read-out: LC50 HELA
[11] = test system: HeLa-APL; experiment: SRB colorimetric assay of cell growth and viability, HeLa-APL; settings: 48 hours exposure; for CC50: read-out: LC50 HELA-APL
[12] = test system: K-562; experiment: SRB colorimetric assay of cell growth and viability, K-562; settings: 48 hours exposure; for CC50: read-out: LC50 K-562
[13] = test system: PANC-1; experiment: SRB colorimetric assay of cell growth and viability, PANC-1; settings: 48 hours exposure; for CC50: read-out: LC50 PANC-1
[14] = test system: LoVo; experiment: SRB colorimetric assay of cell growth and viability, LoVo; settings: 48 hours exposure

SMILES: C/C=C1\NC(=O)[C@H](Cc2ccccc2)NC(=O)[C@@H](C(C)C)NC(=O)[C@@H]([C@@H](C)CC)NC(=O)[C@H](NC(=O)[C@H](NC(=O)[C@H](CCCN)NC(=O)[C@H]2CCCN2C(=O)[C@H](NC(=O)[C@@H](NC(=O)[C@H](C)NC(=O)[C@H](NC(=O)CCCC(C)C)C(C)C)C(C)C)C(C)C)[C@@H](C)CC)[C@@H](C)OC(=O)[C@H](C(C)C)NC1=O [Compound 112, [Ala^12]-KF] ({Hexanoyl(5-Me)}-[dV]AV[dV][dP][Orn][d(aIle)][d(aThr)][d(aIle)][dV]F[Dhb]V; ester 8-C)
- TGI A-549 ([1]; A-549): 2.87E−06 Molar
- GI50 ([1]; A-549): 1.45 µM
- CC50 ([1]; A-549): 5.64 µM
- GI50 ([2]; MEL-28): 1.39 µM
- TGI MEL-28 ([2]; MEL-28): 2.74E−06 Molar
- CC50 ([2]; MEL-28): 5.43 µM
- TGI HT-29 ([3]; HT-29): 2.26E−06 Molar
- GI50 ([3]; HT-29): 1.15 µM
- CC50 ([3]; HT-29): 4.45 µM
- GI50 [4]: 1.11 µM
- TGI LOVO-DOX [4]: 2.76E−06 Molar
- CC50 ([4]; read-out: LC50 LOVO-DOX): 6.85 µM
- GI50 ([5]; DU-145): 1.34 µM
- LC50 (concentration causing 50% net cell kill) ([5]; DU-145): 5.91 µM
- TGI DU-145 ([5]; DU-145): 2.82E−06 Molar
- GI50 ([6]; LN-caP): 1.19 µM
- TGI LN-caP ([6]; LN-caP): 2.64E−06 Molar
- CC50 ([6]; LN-caP): 5.85 µM
- GI50 ([7]; SK-BR-3): 3.97 µM
- LC50 ([7]; SK-BR-3): 6.91 µM
- TGI SK-BR-3 ([7]; SK-BR-3): 5.84E−06 Molar
- GI50 ([8]; IGROV): 1.31 µM
- LC50 (concentration causing 50% net cell killing) ([8]; IGROV): 6.91 µM
- TGI IGROV ([8]; IGROV): 3.09E−06 Molar
- GI50 ([9]; IGROV-ET): 1.51 µM
- TGI IGROV-ET ([9]; IGROV-ET): 3.44E−06 Molar
- CC50 ([9]; IGROV-ET): 6.91 µM
- GI50 ([10]; HELA): 0.739 µM
- TGI HELA ([10]; HELA): 2.41E−06 Molar
- CC50 ([10]; HELA): 6.91 µM
- GI50 ([11]; HELA-APL): 1.42 µM
- TGI HELA-APL ([11]; HELA-APL): 2.85E−06 Molar
- CC50 ([11]; HELA-APL): 5.75 µM
- GI50 ([12]; K-562): 2.79 µM
- TGI K-562 ([12]; K-562): 5.62E−06 Molar
- CC50 ([12]; K-562): 6.91 µM
- GI50 ([13]; PANC-1): 1.91 µM
- TGI PANC-1 ([13]; PANC-1): 5.43E−06 Molar
- CC50 ([13]; PANC-1): 6.91 µM

SMILES: C/C=C1\NC(=O)[C@H](Cc2ccccc2)NC(=O)[C@@H](C(C)C)NC(=O)[C@@H]([C@@H](C)CC)NC(=O)[C@H](NC(=O)[C@H](NC(=O)[C@H](CCCN)NC(=O)[C@H]2CCCN2C(=O)[C@H](NC(=O)[C@@H](NC(=O)[C@@H](NC(=O)[C@H](NC(=O)Cc2cc(F)cc(F)c2)C(C)C)[C@@H](C)O)C(C)C)C(C)C)[C@@H](C)CC)[C@@H](C)OC(=O)[C@H](C(C)C)NC1=O [Compound 22, [3,5-dFPhAc^14]-KF]
- TGI A-549 [1]: 2.16E−06 Molar
- GI50 [1]: 1.17 µM
- CC50 [1]: 3.99 µM
- GI50 [2]: 2.5 µM
- TGI MEL-28 [2]: 6.58E−06 Molar
- CC50 [2]: 6.58 µM
- TGI HT-29 [3]: 1.94E−06 Molar
- GI50 [3]: 0.888 µM
- CC50 [3]: 4.25 µM
- GI50 [14]: 0.288 µM
- TGI LOVO [14]: 1.06E−06 Molar
- CC50 ([14]; read-out: LC50 LOVO): 3.11 µM
- GI50 [5]: 1.43 µM
- LC50 (concentration causing 50% net cell kill) [5]: 6.58 µM
- TGI DU-145 [5]: 6.58E−06 Molar
- TGI LN-caP [6]: 6.58E−06 Molar
- GI50 ([6]; read-out: GI50 LN-caP): 1.64 µM
- CC50 [6]: 6.58 µM
- GI50 [7]: 0.464 µM
- LC50 [7]: 3.64 µM
- TGI SK-BR-3 [7]: 1.45E−06 Molar
- GI50 [8]: 0.98 µM
- LC50 (concentration causing 50% net cell killing) [8]: 4.57 µM
- TGI IGROV [8]: 2.12E−06 Molar
- GI50 [9]: 1.07 µM
- TGI IGROV-ET [9]: 2.32E−06 Molar
- CC50 [9]: 5.01 µM
- GI50 [10]: 1.29 µM
- TGI HELA [10]: 3.28E−06 Molar
- CC50 [10]: 6.58 µM
- GI50 [11]: 1.96 µM
- TGI HELA-APL [11]: 6.58E−06 Molar
- CC50 [11]: 6.58 µM
- GI50 [12]: 6.58 µM
- TGI K-562 [12]: 6.58E−06 Molar
- CC50 [12]: 6.58 µM
- GI50 [13]: 5.45 µM
- TGI PANC-1 [13]: 6.58E−06 Molar
- CC50 [13]: 6.58 µM
